From publication PMC11434354, “Metabolic and Pharmacokinetic Profiling Studies of N, N-Dimethylaniline-Heliamine in Rats by UHPLC-Q-Orbitrap MS/MS” (Molecules, 2024)
Where two headings read alike, the source gives them in different places.

Experiment: Pharmacokinetic study of DH in rats after oral and intravenous administration (non-compartmental analysis)
Assay type: in vivo, male Sprague–Dawley (SD) rats
Conditions: for MRT last: read-out: MRT0–t; for MRT inf: read-out: MRT0–∞; for half-life: read-out: T1/2 (terminal half-life) (converted)
Description: The Xinjiang Medical University (Xinjiang, China) provided twelve male Sprague–Dawley (SD) rats (weight 200 ± 20 g). The Animal Experimentation Ethics Committee of Xinjiang Medical University gave its approval to all animal experiments. DH was created using a mixture consisting of 2% ethanol, 8% Kolliphor, and 90% distilled water. Twelve rats were selected randomly and divided into two groups. Before administering the oral dose, the rats were fasted for 12 h but were allowed access to water. Each rat in the oral group was orally given 19.2 mg/kg of DH. Blood samples were collected from their ophthalmic veins at 0, 0.25, 0.5, 1, 1.5, 2, 4, 8, 12, and 24 h for the oral study. In the intravenous group, each rat was given an intravenous tail injection of 1.9 mg/kg of DH. Blood was collected from their ocular veins at 0, 0.1, 0.25, 0.5, 0.75, 1, 1.5, 3.4, 7.5, 12, and 24 h for further analysis. The collected plasma was thereafter subjected to centrifugation (14,000 rpm) for 10 min in a 1.5 mL polyethylene collection tube with EDTA. Following centrifugation, the supernatant was stored in a refrigerator at –80 °C.
Rat plasma samples were assessed for DH using a Thermo Fisher Scientific Q Exactive Plus Orbitrap MS and a Dionnex Ultimate 3000 RSL nano System (Thermo Fisher Scientific, Bremen, Germany). Chromatographic separation was performed with a pre-column (1.7 µm) and an ACQUITY UHPLC BEH C18 column (2.1 × 75 mm, 1.7 µm). The procedure utilized a 10 µL injection volume and was carried out for 5 min at 0.2 mL/min isocratic (70%A (0.1% formic acid in water): 30%B (acetonitrile)). The temperature of the RS autosampler was maintained at 10 °C, and the column was set at 35 °C. Positive electrospray ionization (ESI) and the Parallel Reaction Monitor (PRM) mode were employed to identify DH and the IS. AGC targets were set at 1 × 10^6, the maximum iteration time at 100 ms, the spray voltage at 3.2 kV, the capillary temperature at 320 °C, the S-lens RF level at 55, and 10 and 38 for the IS of the high collision dissociation cell of DH were the MS parameters used. The PRM transitions for DH and IS were 313.19/192.10 (m/z) and 400.18/310.12 (m/z), respectively.
Dissolve PK samples were stored at −80 °C at room temperature. We added 10 µL of 30% acetonitrile water and vortexed it for 3 s. We then added 10 µL of IS and vortexed it for 3 s. Then, 300 µL of acetonitrile was added to the above plasma, vortexed for 1 min, and centrifuged for 7 min. The mixture supernatant was collected and blown dry at 40 °C under nitrogen. Blow-dried samples were re-dissolved in 100 μL of 30% acetonitrile in water and centrifuged for 7 min.
Twelve male SD rats, weighing […], were used to perform PK studies on DH. SD rats fasted for 12 h before administration, but the water was freely available. Normal drinking and eating resumed four hours after administration. To study the bioavailability and PK parameters of DH, rats were randomly divided into two groups. The dose administered was 1.9 mg/kg for the intravenous group and 19.2 mg/kg for the oral administration group. Oral bioavailability was calculated using Equation (2) as follows:Oral bioavailability (%) = (AUCp.o. × Dosei.v./AUCi.v. × Dosep. o.) × 100%(2)
The Q Exactive Plus Orbitrap MS data were acquired using the Thermo Xcalibur 4.2. software (Thermo Fisher Scientific, Waltham, MA, USA). The Qual Browser was used to extract ion chromatograms for screening candidate metabolites with a mass tolerance of 5 ppm and a mass precision of 4 decimals. In addition, MS/MS fragment ions were extracted for structural confirmation of candidate metabolites. The Qual Browser was used for the quantification of DH in rat plasma. Pharmacokinetic parameters were processed using the non-compartmental pharmacokinetic data analysis software program of MaS Studio 1.5.2.14 stable (Shanghai Boca Pharmaceutical Technology Co., Shanghai, China). Finally, the results were described as arithmetic mean ± SD.

[1] = I.V. 1.9 mg/kg, n = 6, mean ± SD
[2] = P.O. 19.2 mg/kg, n = 6, mean ± SD
[3] = male, Sprague-Dawley, rat, plasma, iv, I.V. 1.9 mg/kg, n = 6, mean ± SD
[4] = male, Sprague-Dawley, rat, plasma, po, P.O. 19.2 mg/kg, n = 6, mean ± SD

Structure (SMILES): COc1cc2c(cc1OC)C(c1ccc(N(C)C)cc1)NCC2 (stereo not shown) [DH, N, N-dimethylaniline-heliamine]
- AUC0–t [1]: 439 ± 30.1 ng·h/mL
- AUC0–∞ [1]: 495 ± 36.4 ng·h/mL
- Vd (apparent volume of distribution) (I.V. 1.9 mg/kg, n = 6, mean ± SD, 1.9 mg/kg): 15,514.58 ± 2159.74 mL/kg
- AUC0–t [2]: 707 ± 265 ng·h/mL
- AUC0–∞ [2]: 748 ± 279 ng·h/mL
- CL (clearance) [2]: 30,148.65 ± 15,354.27 mL/h/kg
- Vd (apparent volume of distribution) [2]: 126,728.09 ± 56,867.09 mL/kg
- Vd (male, Sprague-Dawley, rat, plasma, iv, 1.9 mg/kg, I.V. 1.9 mg/kg, n = 6, mean ± SD, read-out: Vd (apparent volume of distribution)): 15.1 L/kg
- Cmax [3]: 183 ± 33.6 ng/mL
- clearance (male, Sprague-Dawley, rat, plasma, iv, I.V. 1.9 mg/kg, n = 6, mean ± SD, read-out: CL (clearance) (converted)): 64.3 mL/min/kg
- MRT last [3]: 2.49 ± 0.33 h
- MRT inf [3]: 3.56 ± 0.26 h
- half-life [3]: 2.79 ± 0.34 h
- bioavailability (male, Sprague-Dawley, rat, plasma, oral, P.O. 19.2 mg/kg vs I.V. 1.9 mg/kg, read-out: Fabs (absolute oral bioavailability)): 16.1%
- Cmax [4]: 121 ± 42.4 ng/mL
- Tmax [4]: 1.5 h
- MRT last [4]: 4.07 ± 0.34 h
- MRT inf [4]: 4.76 ± 0.4 h
- half-life [4]: 2.96 ± 0.32 h
